# The source made the active and inactive calls.
# What was measured:
# Aminopeptidase N = biological target: T1, Aminopeptidase N (Plasmodium falciparum FcB1/Columbia, UniProt O96935); assay: P. falciparum M1AAP inhibitors, biochemical, fluorogenic H-Leu-NHMec substrate, 1536-well (AID 1445); design: species or system Plasmodium falciparum 3D7, 3D7
# T1 sequence (O96935 whole entry): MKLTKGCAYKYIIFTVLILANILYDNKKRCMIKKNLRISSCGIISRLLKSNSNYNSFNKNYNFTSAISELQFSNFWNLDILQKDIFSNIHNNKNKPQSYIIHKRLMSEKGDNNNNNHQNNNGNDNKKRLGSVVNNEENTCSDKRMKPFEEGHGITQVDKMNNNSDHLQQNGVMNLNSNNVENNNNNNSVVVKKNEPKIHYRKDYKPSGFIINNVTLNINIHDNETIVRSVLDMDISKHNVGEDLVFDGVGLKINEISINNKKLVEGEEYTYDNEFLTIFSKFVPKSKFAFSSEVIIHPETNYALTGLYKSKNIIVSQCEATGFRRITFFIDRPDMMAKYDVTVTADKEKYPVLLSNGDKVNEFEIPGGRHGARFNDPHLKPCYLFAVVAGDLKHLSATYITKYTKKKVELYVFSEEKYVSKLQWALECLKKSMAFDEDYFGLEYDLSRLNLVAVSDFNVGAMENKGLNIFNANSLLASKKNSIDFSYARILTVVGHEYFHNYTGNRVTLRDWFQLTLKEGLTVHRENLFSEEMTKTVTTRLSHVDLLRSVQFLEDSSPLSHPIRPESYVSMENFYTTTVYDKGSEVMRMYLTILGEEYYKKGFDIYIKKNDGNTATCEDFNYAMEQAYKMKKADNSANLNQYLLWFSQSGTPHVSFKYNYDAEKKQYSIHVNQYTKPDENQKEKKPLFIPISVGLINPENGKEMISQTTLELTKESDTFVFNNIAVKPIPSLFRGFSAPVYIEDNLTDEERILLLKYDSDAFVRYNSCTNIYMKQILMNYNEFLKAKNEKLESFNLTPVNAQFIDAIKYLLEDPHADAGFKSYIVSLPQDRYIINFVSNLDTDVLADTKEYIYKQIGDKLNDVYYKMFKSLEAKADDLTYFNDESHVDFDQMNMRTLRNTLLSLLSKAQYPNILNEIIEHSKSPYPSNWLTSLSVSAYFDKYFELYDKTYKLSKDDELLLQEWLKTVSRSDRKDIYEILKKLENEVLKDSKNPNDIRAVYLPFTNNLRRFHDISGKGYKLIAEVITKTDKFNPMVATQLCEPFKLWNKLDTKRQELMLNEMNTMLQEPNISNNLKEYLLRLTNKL
# [1] = biological target: FAD-linked sulfhydryl oxidase ALR (Homo sapiens, UniProt P55789); assay: inhibitors of human ALR sulfhydryl oxidase, dose response, biochemical, H2O2 detection, luminescence, cherry-pick (AID 493248)
# [2] = NIH-3T3 fibroblast cytotoxicity, dose response, cytotoxicity control, cell-based, fluorescence, Alamar Blue, secondary assay (AID 2327); type: functional;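 note: NIH-3T3 mouse fibroblasts cultured with fluconazole at 8 µg/mL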
# [3] = C. albicans growth with fluconazole, confirmation, fluorescence, retest (AID 2467); type: functional, cell-based
# [4] = biological target: T2, Serine/threonine-protein phosphatase (Candida dubliniensis (strain CD36 / CBS 7987 / NCPF 3949 / NRRLY-17841) (Yeast), UniProt B9W6M3); assay: calcineurin pathway inhibitors in yeast reporter, dose response, S. cerevisiae, CDRE-lacZ, luminescence, secondary (AID 2388); type: functional, cell-based;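 note: yeast reporter cells carrying a calcineurin-responsive lacZ construct stimulated with calcium chloride; luminescent beta-galactosidase reporter signal in whole cells rather than isolated phosphatase activity; potency for inhibition where a drop in reporter signal means calcineurin blockade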
# T2 sequence (B9W6M3 whole entry): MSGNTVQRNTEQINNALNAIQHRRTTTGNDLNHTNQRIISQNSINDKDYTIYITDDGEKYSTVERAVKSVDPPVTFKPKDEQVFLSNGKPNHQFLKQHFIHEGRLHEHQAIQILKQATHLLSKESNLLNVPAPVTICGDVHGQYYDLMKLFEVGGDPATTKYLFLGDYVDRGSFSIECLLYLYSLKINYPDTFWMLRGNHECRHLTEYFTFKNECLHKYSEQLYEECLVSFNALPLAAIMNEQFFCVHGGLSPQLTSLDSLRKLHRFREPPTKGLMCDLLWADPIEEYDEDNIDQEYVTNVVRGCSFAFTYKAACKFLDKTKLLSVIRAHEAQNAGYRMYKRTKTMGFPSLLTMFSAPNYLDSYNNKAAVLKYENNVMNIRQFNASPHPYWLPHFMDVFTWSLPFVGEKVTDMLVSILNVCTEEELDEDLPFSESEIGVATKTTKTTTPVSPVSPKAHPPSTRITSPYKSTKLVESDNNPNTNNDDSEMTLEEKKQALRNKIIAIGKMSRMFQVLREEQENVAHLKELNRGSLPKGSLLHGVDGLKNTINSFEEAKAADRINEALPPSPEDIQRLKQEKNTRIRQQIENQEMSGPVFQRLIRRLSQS
# [5] = biological target: ATP-dependent molecular chaperone HSP82 (Candida albicans (strain WO-1) (Yeast), UniProt C4YTQ8); assay: loss of DOC-induced GRE-beta-galactosidase reporter signal, dose response, Hsp90 inhibitor project, S. cerevisiae, luminescence (AID 2400); type: functional, cell-based;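 note: beta-galactosidase luminescence from glucocorticoid response element reporter as proxy for Hsp90 function; inhibitor potency where signal loss means Hsp90 inhibition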
# [6] = biological target: Peroxisome proliferator-activated receptor gamma/Nuclear receptor coactivator 1 (Homo sapiens, UniProt P37231); assay: TR-FRET dose response biochemical High Throughput Screening assay for agonists of the steroid receptor coactivator 1 (SRC-1) recruitment by the peroxisome proliferator-activated receptor gamma (PPAR gamma): non-selective agonists. [Related pubchem assays (depositor defined):AID1300, AID1808, AID504735, AID631]; type: protein assay
# [7] = biological target: Peroxisome proliferator-activated receptor gamma/Nuclear receptor coactivator 3 (Homo sapiens, UniProt P37231); assay: TR-FRET dose response biochemical High Throughput Screening assay for agonists of the steroid receptor coactivator 3 (SRC-3) recruitment by the peroxisome proliferator-activated receptor gamma (PPAR gamma): non-selective agonists. [Related pubchem assays: 1301 (Confirmation screen.), 1048 (Primary screen.)]; type: functional
# [8] = biological target: Peroxisome proliferator-activated receptor gamma/Nuclear receptor coactivator 2 (Homo sapiens, UniProt P37231); assay: TR-FRET dose response biochemical High Throughput Screening assay for agonists of the steroid receptor coactivator 2 (SRC-2) recruitment by the peroxisome proliferator-activated receptor gamma (PPAR gamma): non-selective agonists. [Related pubchem assays: 1297, 1032 ]; type: functional
# [9] = biological target: DNA dC->dU-editing enzyme APOBEC-3A (Homo sapiens, UniProt P31941); assay: Dose Response confirmation of small molecule APOBEC3A DNA Deaminase Inhibitors via a fluorescence-based single-stranded DNA deaminase assay. [Related pubchem assays (depositor defined):AID493011, AID493024]; type: functional
# [10] = biological target: DNA dC->dU-editing enzyme APOBEC-3G (Homo sapiens, UniProt Q9HC16); type: functional;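 note: Dose-response counterscreen measuring inhibition of APOBEC3G DNA deaminase activity, run while confirming APOBEC3A inhibitors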
# Cytochrome P450 2C19 = Cytochrome P450 2C19 (Homo sapiens, UniProt P33261); assay: Cytochrome panel assay with activity outcomes. Panel member name: p450-cyp2c19 Compounds with AC50 equal or less than 10 uM are considered active; type: functional; conditions: read-out: AC50
# Cytochrome P450 2C9 = Cytochrome P450 2C9 (Homo sapiens, UniProt P11712)
# [11] = cytotoxicity in HEK-293T cells, dose response, cytotoxicity control for BCR NF-kB inhibitor project, luminescence, B-cell screen hits (AID 489021); type: functional, cell-based;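 note: HEK-293T cells carrying an NF-kB luciferase reporter; cells exposed to compound for about 14 hours before viability readout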
# [12] = biological target: Alkaline phosphatase, placental type (Homo sapiens, UniProt P05187); assay: PLAP enzyme inhibitors, confirmation, biochemical, luminescence (AID 1512); type: functional
# [13] = biological target: T3, Alkaline phosphatase, tissue-nonspecific isozyme (Homo sapiens, UniProt P05186); assay: human TNAP enzyme inhibitors, SAR follow-up, biochemical, luminescent, dose response (AID 1056)
# T3 sequence (P05186 whole entry): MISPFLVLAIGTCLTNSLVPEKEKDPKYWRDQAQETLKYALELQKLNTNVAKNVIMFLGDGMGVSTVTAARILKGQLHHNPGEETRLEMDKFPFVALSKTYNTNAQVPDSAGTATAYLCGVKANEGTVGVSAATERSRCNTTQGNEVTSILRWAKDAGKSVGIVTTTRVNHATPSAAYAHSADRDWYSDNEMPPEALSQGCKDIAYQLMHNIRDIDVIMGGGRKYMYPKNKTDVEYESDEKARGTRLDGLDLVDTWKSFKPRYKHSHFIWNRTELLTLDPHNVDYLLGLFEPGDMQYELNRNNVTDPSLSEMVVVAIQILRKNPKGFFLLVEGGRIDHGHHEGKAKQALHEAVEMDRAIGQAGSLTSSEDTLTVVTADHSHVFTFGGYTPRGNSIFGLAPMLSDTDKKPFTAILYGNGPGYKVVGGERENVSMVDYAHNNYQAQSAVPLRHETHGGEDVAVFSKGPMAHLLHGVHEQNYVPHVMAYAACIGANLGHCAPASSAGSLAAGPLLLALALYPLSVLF
# [14] = biological target: Voltage-dependent T-type calcium channel subunit alpha-1H (Homo sapiens, UniProt O95180); type: functional;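 note: channel activity triggered by adding a high calcium stimulation buffer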
# [15] = HEp-2 cell cytotoxicity, dose response, cytotoxicity control for RSV inhibitor project, HTS (AID 2410); type: functional; conditions: human respiratory syncytial virus
# Large T antigen = Large T antigen (Simian virus 40, UniProt P03070); type: functional, Betapolyomavirus macacae;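 note: Confirmatory-stage PubChem screen for compounds that inhibit SV40 T antigen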
# Trypsin = Trypsin (Sus scrofa, UniProt P00761); assay: porcine trypsin inhibitors, dose response, selectivity assay for Rce1 protease inhibitor project, biochemical, quenched peptide fluorescence, cherry-pick (AID 488789)
# Chain of Alkaline phosphatase, placental type (P05187 whole entry): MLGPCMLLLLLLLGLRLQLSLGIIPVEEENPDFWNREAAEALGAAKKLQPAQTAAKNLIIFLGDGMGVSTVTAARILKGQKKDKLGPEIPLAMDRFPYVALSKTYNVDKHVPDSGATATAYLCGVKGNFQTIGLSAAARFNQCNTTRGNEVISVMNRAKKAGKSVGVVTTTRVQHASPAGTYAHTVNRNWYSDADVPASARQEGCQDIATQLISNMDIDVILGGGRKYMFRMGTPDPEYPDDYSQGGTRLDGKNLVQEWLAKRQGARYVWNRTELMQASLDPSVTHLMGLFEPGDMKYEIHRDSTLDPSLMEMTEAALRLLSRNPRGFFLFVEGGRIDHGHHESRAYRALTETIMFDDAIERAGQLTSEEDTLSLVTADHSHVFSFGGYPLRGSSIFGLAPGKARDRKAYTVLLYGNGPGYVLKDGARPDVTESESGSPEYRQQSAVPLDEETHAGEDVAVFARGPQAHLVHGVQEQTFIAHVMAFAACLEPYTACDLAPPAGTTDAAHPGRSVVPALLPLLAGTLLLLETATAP
# Chain of DNA dC->dU-editing enzyme APOBEC-3A (P31941 whole entry): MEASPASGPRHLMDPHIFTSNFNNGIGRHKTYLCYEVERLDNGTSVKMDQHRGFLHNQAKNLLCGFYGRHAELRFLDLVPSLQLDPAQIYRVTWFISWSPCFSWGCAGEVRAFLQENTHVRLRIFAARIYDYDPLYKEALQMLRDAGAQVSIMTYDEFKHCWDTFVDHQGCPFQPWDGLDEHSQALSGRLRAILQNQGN
# Chain of DNA dC->dU-editing enzyme APOBEC-3G (Q9HC16 whole entry): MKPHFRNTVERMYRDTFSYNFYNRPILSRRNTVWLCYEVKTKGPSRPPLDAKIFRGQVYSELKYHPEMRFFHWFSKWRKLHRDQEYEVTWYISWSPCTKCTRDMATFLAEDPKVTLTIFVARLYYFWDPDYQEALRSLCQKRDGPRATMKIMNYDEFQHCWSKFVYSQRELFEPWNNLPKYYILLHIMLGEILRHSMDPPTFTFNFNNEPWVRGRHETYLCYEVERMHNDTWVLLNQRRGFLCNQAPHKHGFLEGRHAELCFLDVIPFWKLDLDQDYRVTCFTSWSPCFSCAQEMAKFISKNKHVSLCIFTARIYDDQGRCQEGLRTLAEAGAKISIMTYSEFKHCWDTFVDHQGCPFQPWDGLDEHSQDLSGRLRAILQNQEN
# Chain of Peroxisome proliferator-activated receptor gamma/Nuclear receptor coactivator 2 (P37231 whole entry): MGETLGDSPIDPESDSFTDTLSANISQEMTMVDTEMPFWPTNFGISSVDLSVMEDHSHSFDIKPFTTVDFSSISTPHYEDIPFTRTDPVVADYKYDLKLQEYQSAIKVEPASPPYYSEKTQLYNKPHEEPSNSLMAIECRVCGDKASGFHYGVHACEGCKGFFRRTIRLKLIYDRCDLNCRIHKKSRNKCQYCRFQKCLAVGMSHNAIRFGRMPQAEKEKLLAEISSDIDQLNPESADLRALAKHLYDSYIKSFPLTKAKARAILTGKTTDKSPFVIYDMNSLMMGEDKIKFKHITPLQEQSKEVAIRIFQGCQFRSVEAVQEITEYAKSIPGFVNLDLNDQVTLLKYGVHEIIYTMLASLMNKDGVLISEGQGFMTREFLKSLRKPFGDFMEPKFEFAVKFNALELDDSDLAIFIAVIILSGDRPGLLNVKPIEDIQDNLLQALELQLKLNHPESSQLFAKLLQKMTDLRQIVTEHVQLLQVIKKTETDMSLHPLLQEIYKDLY
# Chain of Peroxisome proliferator-activated receptor gamma/Nuclear receptor coactivator 2 (Q15596 whole entry, further chain): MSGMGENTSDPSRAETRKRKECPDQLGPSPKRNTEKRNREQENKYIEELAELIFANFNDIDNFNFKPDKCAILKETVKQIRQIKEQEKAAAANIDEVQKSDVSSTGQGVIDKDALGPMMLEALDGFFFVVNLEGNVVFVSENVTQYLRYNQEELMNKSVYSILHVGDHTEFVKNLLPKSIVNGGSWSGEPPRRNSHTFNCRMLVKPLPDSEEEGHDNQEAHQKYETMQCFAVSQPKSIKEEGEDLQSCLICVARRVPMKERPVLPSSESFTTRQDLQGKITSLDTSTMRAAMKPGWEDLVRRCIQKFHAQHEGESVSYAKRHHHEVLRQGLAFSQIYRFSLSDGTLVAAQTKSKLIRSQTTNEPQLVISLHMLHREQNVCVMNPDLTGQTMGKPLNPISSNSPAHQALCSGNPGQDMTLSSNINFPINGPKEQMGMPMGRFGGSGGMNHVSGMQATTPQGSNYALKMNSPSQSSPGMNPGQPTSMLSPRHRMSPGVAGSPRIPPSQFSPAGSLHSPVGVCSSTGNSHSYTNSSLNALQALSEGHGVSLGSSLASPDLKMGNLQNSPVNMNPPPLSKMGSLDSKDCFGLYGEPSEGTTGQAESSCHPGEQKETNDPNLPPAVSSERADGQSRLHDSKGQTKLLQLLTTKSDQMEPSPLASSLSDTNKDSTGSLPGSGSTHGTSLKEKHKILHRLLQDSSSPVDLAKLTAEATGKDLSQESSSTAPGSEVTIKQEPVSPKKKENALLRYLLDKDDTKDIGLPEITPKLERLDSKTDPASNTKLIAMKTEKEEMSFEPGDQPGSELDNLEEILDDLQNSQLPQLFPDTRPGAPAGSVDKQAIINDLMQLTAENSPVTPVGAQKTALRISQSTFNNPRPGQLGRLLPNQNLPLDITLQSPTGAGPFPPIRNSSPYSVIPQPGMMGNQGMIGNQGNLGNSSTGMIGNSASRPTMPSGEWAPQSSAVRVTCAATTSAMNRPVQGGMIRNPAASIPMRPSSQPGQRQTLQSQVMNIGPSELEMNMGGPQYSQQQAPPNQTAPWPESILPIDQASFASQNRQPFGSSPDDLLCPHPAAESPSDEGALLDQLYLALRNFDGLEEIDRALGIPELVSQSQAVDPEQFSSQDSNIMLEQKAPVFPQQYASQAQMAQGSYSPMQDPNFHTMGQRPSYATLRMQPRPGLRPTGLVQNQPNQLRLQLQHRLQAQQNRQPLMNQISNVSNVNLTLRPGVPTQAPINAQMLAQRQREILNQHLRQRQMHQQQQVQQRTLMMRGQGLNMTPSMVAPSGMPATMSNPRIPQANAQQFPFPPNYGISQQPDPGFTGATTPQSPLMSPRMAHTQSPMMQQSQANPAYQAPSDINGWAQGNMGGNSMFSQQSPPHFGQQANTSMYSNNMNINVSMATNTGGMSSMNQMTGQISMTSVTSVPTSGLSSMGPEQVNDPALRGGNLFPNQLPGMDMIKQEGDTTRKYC
# Chain of Peroxisome proliferator-activated receptor gamma/Nuclear receptor coactivator 1 (P37231 whole entry): as the sequence (P37231 whole entry) above
# Chain of Peroxisome proliferator-activated receptor gamma/Nuclear receptor coactivator 1 (Q15788 whole entry, further chain): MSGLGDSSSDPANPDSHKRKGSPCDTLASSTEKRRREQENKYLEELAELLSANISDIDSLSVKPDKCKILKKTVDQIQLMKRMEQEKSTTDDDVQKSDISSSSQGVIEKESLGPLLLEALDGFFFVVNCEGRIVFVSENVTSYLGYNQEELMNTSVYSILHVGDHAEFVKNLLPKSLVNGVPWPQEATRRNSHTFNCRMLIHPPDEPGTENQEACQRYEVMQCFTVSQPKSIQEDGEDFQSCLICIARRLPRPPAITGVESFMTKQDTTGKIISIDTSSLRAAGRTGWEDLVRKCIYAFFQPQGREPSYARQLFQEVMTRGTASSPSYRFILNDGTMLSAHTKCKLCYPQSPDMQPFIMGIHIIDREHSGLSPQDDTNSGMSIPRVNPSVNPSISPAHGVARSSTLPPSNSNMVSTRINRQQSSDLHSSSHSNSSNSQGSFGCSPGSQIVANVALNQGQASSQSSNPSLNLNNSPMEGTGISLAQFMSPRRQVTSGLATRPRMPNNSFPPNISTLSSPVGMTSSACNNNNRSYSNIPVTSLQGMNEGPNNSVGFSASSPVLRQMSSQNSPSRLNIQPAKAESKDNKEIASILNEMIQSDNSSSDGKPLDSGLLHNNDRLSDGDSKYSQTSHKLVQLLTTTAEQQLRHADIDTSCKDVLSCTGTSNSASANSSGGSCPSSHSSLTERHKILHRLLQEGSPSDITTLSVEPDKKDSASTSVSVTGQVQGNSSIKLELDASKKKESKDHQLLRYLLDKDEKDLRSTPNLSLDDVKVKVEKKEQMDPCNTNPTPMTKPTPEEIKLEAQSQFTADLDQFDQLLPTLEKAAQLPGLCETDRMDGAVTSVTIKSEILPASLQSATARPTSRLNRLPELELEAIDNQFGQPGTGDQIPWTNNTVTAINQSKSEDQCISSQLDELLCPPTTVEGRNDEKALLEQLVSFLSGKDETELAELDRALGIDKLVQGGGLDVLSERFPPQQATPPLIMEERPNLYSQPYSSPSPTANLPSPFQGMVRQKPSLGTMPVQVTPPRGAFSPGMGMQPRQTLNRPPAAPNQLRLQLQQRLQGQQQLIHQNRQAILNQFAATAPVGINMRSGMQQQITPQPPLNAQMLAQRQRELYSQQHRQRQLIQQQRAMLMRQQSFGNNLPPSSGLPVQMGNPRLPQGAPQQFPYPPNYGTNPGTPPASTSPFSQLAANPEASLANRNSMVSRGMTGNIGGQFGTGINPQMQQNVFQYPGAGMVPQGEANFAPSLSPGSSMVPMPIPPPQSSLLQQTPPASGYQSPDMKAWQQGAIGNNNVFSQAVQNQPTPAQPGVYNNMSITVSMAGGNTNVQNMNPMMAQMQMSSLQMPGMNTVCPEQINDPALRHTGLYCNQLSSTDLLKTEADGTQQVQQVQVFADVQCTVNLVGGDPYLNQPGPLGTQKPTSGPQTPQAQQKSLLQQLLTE
smiles,measurement,setting,value
Cc1c(CCC(=O)O)c(=O)oc2cc3occ(-c4ccc(F)cc4)c3cc12,IC50,Aminopeptidase N,16.3 µM (active)
same,AC50,[1],2.68 µM (active)
O=C(O)c1ccccc1-c1ccccc1C(=O)Nc1cccc(-c2nc3ccccc3o2)c1,EC50,[2],> 160 µM (inactive)
same,IC50,Aminopeptidase N,16.4 µM (active)
same,EC50,[3],2.62 µM (active)
same,EC50,[4],> 180 µM (inactive)
same,EC50,[5],> 150 µM (inactive)
Cn1c(=O)cc(SCC(=O)NCCCN2CCN(c3ccc(F)cc3)CC2)c2ccccc21,EC50,[6],> 79.4 µM (inactive)
same,EC50,[7],> 79.4 µM (not active)
same,EC50,[8],> 26.5 µM (not active)
C[N+]1(CCCOC(=O)C2(c3ccccc3)CCCC2)CCOCC1,IC50,[9],1.61 µM (active)
same,IC50,[10],1.99 µM (active)
Cc1ccc(Sc2ccc(NC(=O)c3ccc(S(C)(=O)=O)cc3Cl)cc2)cc1,EC50,[6],5.96 µM (active)
same,EC50,[7],> 8.82 µM (not active)
same,EC50,[8],5.64 µM (active)
same,AC50,Cytochrome P450 2C19,39.8 µM (inconclusive)
same,AC50,Cytochrome P450 2C9,inconclusive
Cc1cc(OCC(=O)N2CCC(C(N)=O)CC2)c2c3c(c(=O)oc2c1)CCCC3,IC50,[11],> 80 µM (inactive)
CC1CCN(C(=O)c2ncn(C)c2C(=O)N2CCC(C)CC2)CC1,IC50,[9],2.34 µM (active)
same,IC50,[10],2.83 µM (active)
CCCNC(=O)c1ccc(N2CCC3(CC2)CC(c2cccc(Br)c2)=NO3)c(NC(=O)c2ccc(Cl)c([N+](=O)[O-])c2)c1,IC50,[11],> 80 µM (inactive)
Cc1nccn1CC(=O)c1ccc(O)c(O)c1,IC50,[12],2.37 µM (active)
same,IC50,[13],59.6 µM (active)
same,AC50,[1],4.4 µM (active)
Cc1ccc(-c2nnc(CSc3nnc(COc4ccccc4)n3-c3ccc(C)cc3)o2)cc1,EC50,[14],4.75 µM (active)
Cc1cccc(N2CCN(C(=O)CCCOc3ccccc3)CC2)c1C,EC50,[14],5.65 µM (active)
Cc1cc(O)oc2nnc(-c3ccccc3)c1-2,CC50,[15],34.3 µM (active)
same,IC50,[12],> 100 µM (inactive)
same,IC50,[13],0.23 µM (active)
C=CCn1c(SCC(=O)c2ccc(O)c(O)c2)nnc1-c1cccc(C)c1,IC50,[12],5.59 µM (active)
same,IC50,[13],17.8 µM (active)
O=C(NCCc1ccc(O)c(O)c1)C1CCCO1 (stereo not drawn),IC50,[12],44.4 µM (active)
same,IC50,[13],> 100 µM (inactive)
CN(C)S(=O)(=O)c1ccc(C(=O)NCC[N+]2(C)CCCCCC2)o1,IC50,[9],1.89 µM (active)
same,IC50,[10],4.08 µM (active)
CCOC(=O)C1CCN(C(=O)CSc2cc(=O)n(C)c3ccccc23)CC1,EC50,[6],> 79.4 µM (inactive)
same,EC50,[7],> 79.4 µM (not active)
same,EC50,[8],> 79.4 µM (not active)
O=c1oc2cc(O)ccc2c2ccccc12,EC50,[6],> 79.4 µM (inactive)
same,EC50,[7],> 79.4 µM (not active)
same,IC50,Large T antigen,38.8 µM (active)
same,EC50,[8],> 79.4 µM (not active)
O=C(NCc1ccc2c(c1)OCO2)c1cc(-n2cnnc2)ccc1Cl,IC50,[9],1.64 µM (active)
same,IC50,[10],2.44 µM (active)
Cc1cnc(Nc2nc3ccccc3o2)nc1C(=O)Nc1cccc(C(F)(F)F)c1,EC50,[14],5.15 µM (active)
O=C(CN1C(=O)c2ccccc2S1(=O)=O)c1ccc(OC(F)F)cc1,IC50,[11],> 80 µM (inactive)
CCCn1c(N2CCN(CC(=O)Nc3ccc4c(c3)OCCO4)CC2)nc2ccccc21,EC50,[14],3.84 µM (active)
CN1C(=O)c2ccccc2N(C)C1c1ccccc1Cl (stereo not drawn),AC50,Trypsin,9.6 µM (active)

# Source: ChEMBL document CHEMBL1201862, “PubChem BioAssay data set” (2004)
